Consider 45 compounds from PubChem BioAssay AID179 (DTP/NCI, 2004).

Each structure is given as a SMILES string. pEC50, pIC50: −log10 of the molar value. Several values for one entry are separate records, joined by “and”; a condition that tells them apart may be missing. Equal values may be shown once. Activity calls are given as the source filed them.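 The calls were made as follows: active = compounds giving half or more protection of infected cells from virus-caused growth loss, again on retest; inactive = the rest.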 *1 amine or outer side, *2 acyl side, *3 side chain or, on linkers, in order; H or OH if unused. Where a SMILES comes first, the peptide text is derived from it. [ ]: non-standard residue; d: D form. ξ: configuration not given here. X15 = O=C([C@H]1CCC[C@H]1N[*:1])[*:2]; ξW = NC(Cc1c[nH]c2ccccc12)C(=O)O; pGlu = O=C1CC[CH](C(=O)O)N1; ξF = NC(Cc1ccccc1)C(=O)O; ξK = NCCCCC(N)C(=O)O; ξT = CC(O)C(N)C(=O)O

This assay has as its system CEM cells HIV-1 protection, formazan growth assay. Briefly: NCI AIDS Antiviral Assay. To be noted: for pIC50: measured here: growth of uninfected CEM cells. In short, it runs like this: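 Protection of CEM cells against HIV-1 was scored from cell growth (soluble formazan) across five concentrations, with parallel uninfected cells. Lack of protection may reflect toxicity.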

One may read the pEC50 as the EC50 on a negative log10 scale, so that one unit is a factor of ten. The pIC50 is −log10 of the IC50, conventionally taken in molar units. `CCCCCC=C(c1cc(Br)cc(C(=O)O)c1O)c1cc(Br)cc(C(=O)O)c1O`: the pEC50 is less than 3.78 and the negative logarithm of the IC50 (pIC50) is 4.80.

For `CC(C)C(C(=O)O)n1[se]c2ccccc2c1=O` (configuration not stated), the pEC50 is 4.81 and the negative-log IC50 (pIC50) is 3.92.

For the compound `CC1(C)OCC(C2OC3OC(C)(C)OC3C2c2ccccc2)O1` (configuration not stated), the pEC50 was less than 3.70 and the pIC50 was less than 3.70.

In the case of `Cc1cc2c(cc1-c1cc3c(cc1C)C(C(C)C)=C(O)C(=O)/C3=C\Nc1c3ccccc3nc3ccccc13)/C(=C/Nc1c3ccccc3nc3ccccc13)C(=O)C(O)=C2C(C)C`, the pEC50 is less than 4.00 and the pIC50 is 5.76.

Consider `COc1ccc(/C=C2\CCC(C)C3=C2NC(=S)NC3c2ccc(OC)c(OC)c2)cc1OC` (configuration not stated), for which the pEC50 is less than 3.70 and the negative logarithm of the IC50 (pIC50) is 4.95.

Turning to `CCOC(=O)c1cc2c(cn1)[nH]c1cccc(N)c12`, the pEC50 was less than 3.58 and the pIC50 was less than 3.58.

In the case of `COc1cc(-c2c(C(C)=O)c(-c3ccccc3)n(C3OC(COC(C)=O)C(OC(C)=O)C(OC(C)=O)C3OC(C)=O)c(=S)c2C#N)ccc1O` (configuration not stated), the pEC50 is less than 3.70; the pIC50 was 4.13 and 4.34.

`CN1C(=O)C(c2c[nH]c3ccccc23)N(C)C(=O)C1c1c[nH]c2ccccc12` (configuration not stated): the pEC50 was less than 3.70 and the pIC50 was less than 3.70.

In the case of `O=C1c2ccccc2OP(=O)(OCC(F)(F)F)OC1(C(F)(F)F)C(F)(F)F` (configuration not stated), the pEC50 was less than 3.24 and the negative-log IC50 (pIC50) is 3.90.

Regarding `COc1c(C)c(C/C=C(\C)CCCCO[Si](c2ccccc2)(c2ccccc2)C(C)(C)C)c(OC)c(OC)c1OC`, the pEC50 was less than 3.70 and the pIC50 was 4.03.

As to `O=C1C[C@H](c2ccccc2)C2(C(=O)c3ccccc3C2=O)[C@@H](c2ccccc2)C1`, the negative-log EC50 (pEC50) was 4.29 and the pIC50 is 3.99.

As for `O=c1[nH]c2cc([N+](=O)[O-])ccc2nc1/C(=N/Nc1ccccc1)C(O)c1ccc(Cl)cc1Cl` (configuration not stated), the pEC50 is less than 3.57 and the negative logarithm of the IC50 (pIC50) was 3.83.

Consider `CC(C)CC(NC(=O)C(CO)NC(=O)C(CCCCN)NC(=O)C(CCCCN)NC(=O)C(NC(=O)CNC(=O)C(NC(=O)C(CO)NC(=O)C(NC(=O)C(NC(=O)C(CO)NC(=O)C(CC(N)=O)NC(=O)C1CCC(=O)N1)C(C)C)C(C)C)C(C)O)C(C)C)C(=O)NC(Cc1ccccc1)C(=O)NC(CCC(N)=O)C(=O)O` (configuration not stated) ([pGlu]NSVVSTGVKKSLFQ-OH; configuration not given here), for which the pEC50 is less than 4.51 and the pIC50 was less than 4.51.

As to `O=C(Nc1cccc(Cc2cccc(NC(=O)c3ccccc3)c2)c1)c1ccccc1`, the pEC50 was less than 5.03 and the pIC50 was less than 5.03.

On to `O=P1(c2ccccc2)Nc2cc(Cl)c(Cl)cc2N1`, for which the pEC50 is less than 3.70 and the pIC50 is 4.19.

`CC1OC(n2cnc3c(N)nc(Cl)nc32)C(C)(O)C1O` (configuration not stated): the result was inactive.

Turning to `Cc1ccc2[nH]c3c(c2c1)CCC/C3=N/N=C(N)N`, the pEC50 is less than 4.70 and the pIC50 was 5.52.

For the compound `O=S1(=O)OC2(CCCCC2)c2ccccc21`, the pEC50 was less than 3.68 and the pIC50 is less than 3.68.

Turning to `NC1=NN(c2ccccc2)C(=O)C1/C(=N\NC(=O)c1cc2ccccc2cc1O)C(=O)Nc1cccc(C(F)(F)F)c1` (configuration not stated), the pEC50 is less than 5.18 and the pIC50 was less than 5.18.

As for `CN(C)c1ccc(/C=C(\NC(=O)c2ccccc2)C(=O)NC(CCC(=O)O)C(=O)O)cc1` (configuration not stated), the pEC50 was less than 4.30 and the pIC50 is 4.46.

Take `CC(C)(O)c1cc2c(cc1C(C)(C)O)-c1ccccc1-2`: the pEC50 was less than 3.70 and the pIC50 is less than 3.70.

Turning to `CC(=O)c1cccc(N2COC(C)(C)c3nc4ccccc4n3C2)c1`, the pEC50 was less than 3.70 and the negative logarithm of the IC50 (pIC50) is 3.97.

In the case of `O=C(Nc1cccc([N+](=O)[O-])c1)C(=O)C(C(=O)c1ccccc1-c1ccccc1)C1OC(=O)c2ccccc21` (configuration not stated), the pEC50 is less than 4.16 and the pIC50 was 4.48.

On to `O=c1cnn(C2OC(C(O)CO)C(O)C2O)c(=O)[nH]1` (configuration not stated), for which the outcome was inactive.

On to `C=CP(CCP(CCP(C=C)N(CC)CC)c1ccccc1)N(CC)CC` (configuration not stated), for which the pEC50 was less than 5.19 and the pIC50 was less than 5.19.

Regarding `OC(c1cnc2sccn12)C(F)(F)Sc1ccccc1` (configuration not stated), the pEC50 was less than 3.70 and the pIC50 was 4.99.

Regarding `CC(O)C1NC(=O)C(CCCCN)NC(=O)C(Cc2c[nH]c3ccccc23)NC(=O)C(Cc2ccccc2)NC(=O)[C@H]2CCC[C@H]2NC(=O)C(Cc2ccccc2)NC1=O` (some centres not stated) (cyclo([X15][ξF][ξW][ξK][ξT][ξF])), the pEC50 was less than 3.70 and the negative-log IC50 (pIC50) was less than 3.70.

For the compound `CCOC(=O)CC[C@H](NC(=O)N[C@H](C)c1ccccc1)C(=O)OCC`, the pEC50 was less than 3.70 and the negative-log IC50 (pIC50) was 4.40.

Turning to `COC(=O)C1=C(C(=O)OC)C2(c3ccccc3)c3ccccc3C(=O)C1N2C1CCCCC1` (configuration not stated), the pEC50 is less than 3.70 and the pIC50 is 4.78.

In the case of `Nc1ccccc1C(=O)/C=C/c1ccccc1O`, the pEC50 was less than 4.13 and the pIC50 is 4.28.

For the compound `O=C(O)c1ccc(O)c(N=Nc2cc(S(=O)(=O)O)c3cccnc3c2O)c1`, the pEC50 was 4.09 and the negative logarithm of the IC50 (pIC50) was 3.65.

As to `CC(C)(C)OC(=O)N1CCC2(CC1)C(=O)NCN2c1ccccc1`, the pEC50 is less than 3.70 and the pIC50 was less than 3.70.

As to `O=S(Cc1ccccc1)OOCCCCOS(=O)OCc1ccccc1` (configuration not stated), the pEC50 was less than 3.70 and the pIC50 was 5.38.

Consider `O=c1[nH]nc(Cc2ccccc2)n1/N=C\CC/C=N\n1c(Cc2ccccc2)n[nH]c1=O`, for which the pEC50 is less than 3.70 and the pIC50 is 4.43.

For `COc1ccn(C)c(=O)c1C#N`, the pEC50 was less than 2.82 and the pIC50 is less than 2.82.

Take `CC(=O)O[C@H]1C#C/C=C\C#CC[C@@H]2C(=O)N[C@@H]12`: the pEC50 was less than 4.70 and the negative-log IC50 (pIC50) is 5.99.

With `COc1cc2c(cc1OC)C(=O)/C(=C/c1ccc(Cl)cc1)CC2`, the pEC50 was less than 3.70 and the pIC50 is less than 3.70.

With `CC(=O)Nc1cnc2c(nc3cc(C)ccn32)c1C`, the pEC50 is less than 4.13 and the pIC50 was less than 4.13.

On to `O=S1(=O)c2ccccc2S(=O)(=O)c2ccccc21`, for which the pEC50 is 4.06 and the pIC50 was less than 3.70.

Take `O=C(CN1CCC(O)(c2ccc(F)cc2)CC1)N1CCN(C/C=C/c2ccccc2)CC1`: the pEC50 was less than 3.70 and the pIC50 is 4.54.

Consider `N#C/C(=C/c1ccc[nH]1)P(=O)(O)O`, for which the pEC50 is less than 2.90 and the pIC50 is 3.14.

As to `Cc1c(C2(c3cc(C(C)C)c(O)c(CN(CC(=O)O)CC(=O)O)c3C)OS(=O)(=O)c3ccccc32)cc(C(C)C)c(O)c1CN(CC(=O)O)CC(=O)O`, the pEC50 is less than 4.00 and the negative-log IC50 (pIC50) is less than 4.00.

On to `COC1/C=C/O[C@@]2(C)Oc3c(C)c(O)c4c(O)c(cc(O)c4c3C2=O)NC(=O)/C(C)=C\C=C\[C@H](C)C(O)[C@@H](C)[C@@H](O)[C@@H](C)[C@H](OC(C)=O)[C@@H]1C` (some centres not stated), for which the pEC50 is less than 3.76 and the pIC50 is 5.09.

Turning to `C/C=C/C(=O)C(C)C1=CC(=O)C2=C(OC34CC[C@H](O)C(C)(C)[C@@H]3CC[C@H](C)C4(C)C2)C1=O` (some centres not stated), the result was inactive.

Consider `C=CCCC(OCOCCOC)c1cc(C)c(O[Si](C)(C)C(C)(C)C)c(C)c1` (configuration not stated), for which the pEC50 is less than 4.30 and the pIC50 was 4.53.
